Experimental data reported in ChEMBL document CHEMBL1129924, “Synthesis and biological activity of cyclic analogues of MPPG and MCPG as metabotropic glutamate receptor antagonists” (Bioorg Med Chem Lett, 1997).

What was measured:
Type in all cases: functional
[1] = target: Metabotropic glutamate receptor 2 (Rattus norvegicus, UniProt P31421); assay: Antagonistic activity against Metabotropic glutamate receptor 2 was determined
[2] = target: Metabotropic glutamate receptor 6 (Rattus norvegicus, UniProt P35349); assay: Antagonistic activity against Metabotropic glutamate receptor 6 was determined at 1 mM; NE = No significant effect observed
Chain of Metabotropic glutamate receptor 6 (P35349 whole entry): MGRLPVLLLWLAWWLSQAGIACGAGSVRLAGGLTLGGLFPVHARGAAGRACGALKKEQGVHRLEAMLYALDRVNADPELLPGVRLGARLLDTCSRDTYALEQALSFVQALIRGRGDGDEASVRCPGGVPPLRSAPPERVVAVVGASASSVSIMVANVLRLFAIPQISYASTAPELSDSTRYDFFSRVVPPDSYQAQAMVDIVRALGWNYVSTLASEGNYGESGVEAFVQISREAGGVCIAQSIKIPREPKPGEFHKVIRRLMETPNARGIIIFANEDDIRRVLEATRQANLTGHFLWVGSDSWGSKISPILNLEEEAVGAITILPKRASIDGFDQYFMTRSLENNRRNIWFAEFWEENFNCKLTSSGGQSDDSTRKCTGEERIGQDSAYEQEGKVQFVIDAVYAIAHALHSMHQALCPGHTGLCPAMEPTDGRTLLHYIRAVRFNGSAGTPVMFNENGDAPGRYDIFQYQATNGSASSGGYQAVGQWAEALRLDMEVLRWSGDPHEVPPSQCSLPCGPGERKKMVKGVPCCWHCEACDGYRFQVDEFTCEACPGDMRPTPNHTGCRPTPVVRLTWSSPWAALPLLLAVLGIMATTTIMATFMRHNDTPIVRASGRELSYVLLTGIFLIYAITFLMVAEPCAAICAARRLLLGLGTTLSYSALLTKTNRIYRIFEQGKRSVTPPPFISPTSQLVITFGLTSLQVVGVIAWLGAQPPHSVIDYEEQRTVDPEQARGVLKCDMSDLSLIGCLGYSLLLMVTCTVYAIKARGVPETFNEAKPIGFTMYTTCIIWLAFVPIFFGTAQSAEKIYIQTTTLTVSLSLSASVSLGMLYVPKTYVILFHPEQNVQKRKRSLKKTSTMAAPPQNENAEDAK

[3] = target: T1, Metabotropic glutamate receptor 5 (Rattus norvegicus, UniProt P31424); assay: Antagonistic activity against Metabotropic glutamate receptor 5 was determined
T1 sequence (P31424 whole entry): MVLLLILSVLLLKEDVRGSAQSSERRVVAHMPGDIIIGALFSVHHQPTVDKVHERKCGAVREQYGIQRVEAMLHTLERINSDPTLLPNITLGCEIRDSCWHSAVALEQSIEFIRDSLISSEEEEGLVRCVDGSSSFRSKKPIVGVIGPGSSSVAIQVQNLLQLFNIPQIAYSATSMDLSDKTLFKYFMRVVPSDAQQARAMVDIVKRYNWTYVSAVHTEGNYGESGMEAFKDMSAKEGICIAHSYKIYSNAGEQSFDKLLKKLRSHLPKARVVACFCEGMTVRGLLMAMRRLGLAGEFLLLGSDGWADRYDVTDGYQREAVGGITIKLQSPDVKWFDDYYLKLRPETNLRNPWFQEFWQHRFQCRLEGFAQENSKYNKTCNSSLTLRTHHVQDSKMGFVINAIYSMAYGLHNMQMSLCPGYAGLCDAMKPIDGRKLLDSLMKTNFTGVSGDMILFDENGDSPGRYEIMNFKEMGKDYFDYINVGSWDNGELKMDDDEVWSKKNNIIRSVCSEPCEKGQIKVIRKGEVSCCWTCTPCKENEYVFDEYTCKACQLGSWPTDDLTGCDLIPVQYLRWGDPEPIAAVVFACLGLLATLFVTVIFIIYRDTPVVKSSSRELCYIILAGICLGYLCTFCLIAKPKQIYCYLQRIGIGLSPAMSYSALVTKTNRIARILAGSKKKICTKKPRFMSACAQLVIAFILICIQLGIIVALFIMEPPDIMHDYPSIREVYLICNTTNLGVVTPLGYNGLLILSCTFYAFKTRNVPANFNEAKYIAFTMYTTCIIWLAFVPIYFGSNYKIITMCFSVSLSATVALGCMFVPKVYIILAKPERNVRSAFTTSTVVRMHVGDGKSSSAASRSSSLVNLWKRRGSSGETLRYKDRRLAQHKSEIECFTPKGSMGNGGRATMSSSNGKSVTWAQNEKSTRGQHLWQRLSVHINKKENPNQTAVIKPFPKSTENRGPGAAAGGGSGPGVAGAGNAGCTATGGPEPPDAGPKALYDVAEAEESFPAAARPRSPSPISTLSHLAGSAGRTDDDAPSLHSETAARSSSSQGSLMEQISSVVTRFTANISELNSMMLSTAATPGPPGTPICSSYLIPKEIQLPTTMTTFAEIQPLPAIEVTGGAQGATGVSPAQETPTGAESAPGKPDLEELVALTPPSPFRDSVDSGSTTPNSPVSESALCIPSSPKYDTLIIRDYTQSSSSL

[4] = target: T2, Metabotropic glutamate receptor 1 (Rattus norvegicus, UniProt P23385); assay: Antagonistic activity against Metabotropic glutamate receptor 1 was determined
T2 sequence (P23385 whole entry): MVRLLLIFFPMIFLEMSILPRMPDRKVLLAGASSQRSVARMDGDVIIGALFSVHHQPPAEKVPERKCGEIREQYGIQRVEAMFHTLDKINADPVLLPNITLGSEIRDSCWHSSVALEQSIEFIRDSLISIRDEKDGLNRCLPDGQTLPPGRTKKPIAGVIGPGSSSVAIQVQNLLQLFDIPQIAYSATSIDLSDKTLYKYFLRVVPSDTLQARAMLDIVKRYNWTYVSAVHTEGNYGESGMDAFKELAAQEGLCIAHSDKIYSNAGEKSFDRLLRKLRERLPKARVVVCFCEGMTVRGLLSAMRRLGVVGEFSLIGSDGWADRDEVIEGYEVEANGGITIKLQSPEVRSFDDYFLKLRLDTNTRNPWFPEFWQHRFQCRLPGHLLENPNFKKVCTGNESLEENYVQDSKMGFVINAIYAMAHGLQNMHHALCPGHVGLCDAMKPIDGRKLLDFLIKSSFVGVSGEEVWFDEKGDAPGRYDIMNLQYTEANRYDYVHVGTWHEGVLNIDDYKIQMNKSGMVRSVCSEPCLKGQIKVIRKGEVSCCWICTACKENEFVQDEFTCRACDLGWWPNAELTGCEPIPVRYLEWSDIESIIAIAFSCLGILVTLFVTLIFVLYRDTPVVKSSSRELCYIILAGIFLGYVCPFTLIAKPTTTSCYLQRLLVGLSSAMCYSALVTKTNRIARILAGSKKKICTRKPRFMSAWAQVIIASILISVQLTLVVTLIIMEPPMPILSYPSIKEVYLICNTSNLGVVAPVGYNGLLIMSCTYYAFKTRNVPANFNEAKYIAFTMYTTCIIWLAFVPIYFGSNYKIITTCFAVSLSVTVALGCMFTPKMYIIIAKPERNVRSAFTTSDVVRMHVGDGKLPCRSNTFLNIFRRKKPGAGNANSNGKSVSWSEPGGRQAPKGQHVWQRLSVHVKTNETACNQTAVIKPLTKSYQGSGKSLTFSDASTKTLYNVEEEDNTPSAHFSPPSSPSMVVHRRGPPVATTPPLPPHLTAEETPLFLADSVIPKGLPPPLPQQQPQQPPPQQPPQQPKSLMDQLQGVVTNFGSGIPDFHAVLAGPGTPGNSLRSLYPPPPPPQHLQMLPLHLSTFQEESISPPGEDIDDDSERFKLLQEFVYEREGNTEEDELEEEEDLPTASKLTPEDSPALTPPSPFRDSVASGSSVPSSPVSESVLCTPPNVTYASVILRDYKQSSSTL

[5] = target: T1, Metabotropic glutamate receptor 5; assay: Antagonistic activity against Metabotropic glutamate receptor 5 was determined at 1 mM; NE = No significant effect observed
[6] = target: T2, Metabotropic glutamate receptor 1; assay: Antagonistic activity against Metabotropic glutamate receptor 1 was determined at 1 mM; NE = No significant effect observed

Chain of Metabotropic glutamate receptor 2 (P31421 whole entry): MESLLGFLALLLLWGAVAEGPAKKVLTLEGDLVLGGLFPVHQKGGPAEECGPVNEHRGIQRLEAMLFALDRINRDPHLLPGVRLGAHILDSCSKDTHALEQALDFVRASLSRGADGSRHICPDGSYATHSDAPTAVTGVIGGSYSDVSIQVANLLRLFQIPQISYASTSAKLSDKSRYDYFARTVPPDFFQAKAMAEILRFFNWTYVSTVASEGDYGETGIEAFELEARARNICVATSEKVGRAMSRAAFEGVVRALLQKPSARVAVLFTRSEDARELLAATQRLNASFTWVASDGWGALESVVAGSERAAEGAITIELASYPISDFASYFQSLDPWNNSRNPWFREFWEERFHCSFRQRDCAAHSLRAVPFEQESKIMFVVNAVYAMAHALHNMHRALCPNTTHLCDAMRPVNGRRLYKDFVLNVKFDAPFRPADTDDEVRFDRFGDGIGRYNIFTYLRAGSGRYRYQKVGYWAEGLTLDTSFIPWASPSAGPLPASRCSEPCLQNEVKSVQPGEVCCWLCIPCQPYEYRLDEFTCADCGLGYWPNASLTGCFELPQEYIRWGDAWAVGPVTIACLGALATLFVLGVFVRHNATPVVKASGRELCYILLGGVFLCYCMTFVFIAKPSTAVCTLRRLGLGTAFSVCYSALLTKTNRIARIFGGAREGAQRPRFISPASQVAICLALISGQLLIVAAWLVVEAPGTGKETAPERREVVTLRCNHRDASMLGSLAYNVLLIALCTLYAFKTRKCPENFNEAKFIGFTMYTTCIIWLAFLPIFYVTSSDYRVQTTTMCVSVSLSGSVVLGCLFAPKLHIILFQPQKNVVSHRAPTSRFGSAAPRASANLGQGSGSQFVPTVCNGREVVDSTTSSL

IC50 [1] [µM] | IC50 [2] | IC50 [3] [µM] | IC50 [4] [µM] | IC50 [5] | IC50 [6] | Structure (SMILES)
43 | No effect | 355 | 93 | – | – | CC1(C)CC(N)(C(=O)O)c2ccc(C(=O)O)cc2O1 (stereo not drawn)
30 | No effect | – | – | No effect | No effect | NC1(C(=O)O)CCc2cc(P(=O)(O)O)ccc21 (stereo not drawn)
